Assay results reported in ChEMBL document CHEMBL1201862, “PubChem BioAssay data set” (2004).
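Cultured in 96-well plates, cells were exposed to test compound for 48 hours across five concentrations. GI50 is the concentration that inhibits growth by half.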 Calls of active or inactive are those of the source. Rule as the data show it: active = GI50 up to about 1.1 µM and inactive = higher.

Tests used:
Test in all cases: inhibition of tumour cell growth, NCI panel, 48 h
786-0 = test system: 786-0
A498 = test system: A498
A549 = test system: A549
ACHN = test system: ACHN
BT-549 = test system: BT-549
CAKI-1 = test system: CAKI-1
CCRF-CEM = test system: CCRF-CEM
COLO 205 = test system: COLO 205
EKVX = test system: EKVX
HCT-116 = test system: HCT-116
HCT-15 = test system: HCT-15
HL-60 = test system: HL-60
HOP-62 = test system: HOP-62
HOP-92 = test system: HOP-92
HT-29 = test system: HT-29
Hs-578T = test system: Hs-578T
IGROV-1 = test system: IGROV-1
K562 = test system: K562
KM12 = test system: KM12
LOX IMVI = test system: LOX IMVI
M14 = test system: M14
MCF7 = test system: MCF7
MDA-MB-231 = test system: MDA-MB-231
MDA-MB-435 = test system: MDA-MB-435
MDA-N = test system: MDA-N
MOLT-4 = test system: MOLT-4
Malme-3M = test system: Malme-3M
NCI-H226 = test system: NCI-H226
NCI-H23 = test system: NCI-H23
NCI-H460 = test system: NCI-H460
NCI-H522 = test system: NCI-H522
NCI/ADR-RES = test system: NCI/ADR-RES
OVCAR-3 = test system: OVCAR-3
OVCAR-4 = test system: OVCAR-4
OVCAR-5 = test system: OVCAR-5
OVCAR-8 = test system: OVCAR-8
PC-3 = test system: PC-3
RPMI-8226 = test system: RPMI-8226
SF-268 = test system: SF-268
SF-295 = test system: SF-295
SF-539 = test system: SF-539
SK-MEL-28 = test system: SK-MEL-28
SK-MEL-2 = test system: SK-MEL-2
SK-MEL-5 = test system: SK-MEL-5
SK-OV-3 = test system: SK-OV-3
SN12C = test system: SN12C
SNB-19 = test system: SNB-19
SR = test system: SR
SW-620 = test system: SW-620
TK-10 = test system: TK-10
U-251 = test system: U-251
UACC-257 = test system: UACC-257
UACC-62 = test system: UACC-62
UO-31 = test system: UO-31
DU-145 = test system: DU-145
HCC 2998 = test system: HCC 2998
RXF 393 = test system: RXF 393
SNB-75 = test system: SNB-75
T47D = test system: T47D

COc1cc2c(cc1OC)C13CCN4CC5=CCOC(CC(=O)O)C(C5CC41)C3N2 (stereo not drawn)
GI50 (786-0): > 100 µM (inactive)
GI50 (A498): > 100 µM (inactive)
GI50 (A549): > 100 µM (inactive)
GI50 (ACHN): > 100 µM (inactive)
GI50 (BT-549): > 100 µM (inactive)
GI50 (CAKI-1): > 100 µM (inactive)
GI50 (CCRF-CEM): 61.1 µM (inactive)
GI50 (COLO 205): > 100 µM (inactive)
GI50 (EKVX): > 100 µM (inactive)
GI50 (HCT-116): > 100 µM (inactive)
GI50 (HCT-15): > 100 µM
GI50 (HL-60): > 100 µM (inactive)
GI50 (HOP-62): > 100 µM (inactive)
GI50 (HOP-92): 78.3 µM (inactive)
GI50 (HT-29): > 100 µM (inactive)
GI50 (Hs-578T): > 100 µM (inactive)
GI50 (IGROV-1): > 100 µM (inactive)
GI50 (K562): > 100 µM (inactive)
GI50 (KM12): > 100 µM (inactive)
GI50 (LOX IMVI): > 100 µM (inactive)
GI50 (M14): > 100 µM (inactive)
GI50 (MCF7): > 100 µM (inactive)
GI50 (MDA-MB-231): > 100 µM (inactive)
GI50 (MDA-MB-435): > 100 µM (inactive)
GI50 (MDA-N): > 100 µM (inactive)
GI50 (MOLT-4): > 100 µM (inactive)
GI50 (Malme-3M): > 100 µM (inactive)
GI50 (NCI-H226): > 100 µM (inactive)
GI50 (NCI-H23): > 100 µM (inactive)
GI50 (NCI-H460): > 100 µM (inactive)
GI50 (NCI-H522): > 100 µM (inactive)
GI50 (NCI/ADR-RES): > 100 µM (inactive)
GI50 (OVCAR-3): > 100 µM (inactive)
GI50 (OVCAR-4): > 100 µM (inactive)
GI50 (OVCAR-5): > 100 µM (inactive)
GI50 (OVCAR-8): > 100 µM (inactive)
GI50 (PC-3): > 100 µM (inactive)
GI50 (RPMI-8226): > 100 µM (inactive)
GI50 (SF-268): > 100 µM (inactive)
GI50 (SF-295): > 100 µM (inactive)
GI50 (SF-539): > 100 µM (inactive)
GI50 (SK-MEL-28): > 100 µM (inactive)
GI50 (SK-MEL-2): > 100 µM (inactive)
GI50 (SK-MEL-5): > 100 µM (inactive)
GI50 (SK-OV-3): > 100 µM (inactive)
GI50 (SN12C): > 100 µM (inactive)
GI50 (SNB-19): > 100 µM (inactive)
GI50 (SR): > 100 µM (inactive)
GI50 (SW-620): > 100 µM (inactive)
GI50 (TK-10): > 100 µM (inactive)
GI50 (U-251): > 100 µM (inactive)
GI50 (UACC-257): > 100 µM (inactive)
GI50 (UACC-62): > 100 µM (inactive)
GI50 (UO-31): > 100 µM (inactive)

OCCc1ccsc1-c1sc(-c2cc(CCO)c(-c3sccc3CCO)s2)cc1CCO
GI50 (786-0): 12 µM (inactive)
GI50 (A498): 22.5 µM (inactive)
GI50 (A549): 29 µM (inactive)
GI50 (ACHN): 15.8 µM (inactive)
GI50 (BT-549): 6.11 µM (inactive)
GI50 (CAKI-1): 22.8 µM (inactive)
GI50 (CCRF-CEM): 16.4 µM (inactive)
GI50 (COLO 205): 11.6 µM (inactive)
GI50 (DU-145): 15.5 µM (inactive)
GI50 (EKVX): 17.1 µM (inactive)
GI50 (HCC 2998): 12.5 µM (inactive)
GI50 (HCT-116): 16.6 µM (inactive)
GI50 (HCT-15): 12.4 µM
GI50 (HOP-62): 14.5 µM (inactive)
GI50 (HOP-92): 11.6 µM (inactive)
GI50 (IGROV-1): 15.7 µM (inactive)
GI50 (K562): 7.94 µM (inactive)
GI50 (KM12): 3.38 µM (inactive)
GI50 (LOX IMVI): 5.45 µM (inactive)
GI50 (M14): 11.3 µM (inactive)
GI50 (MCF7): 15.7 µM (inactive)
GI50 (MDA-MB-231): 12.2 µM (inactive)
GI50 (MDA-MB-435): 17.7 µM (inactive)
GI50 (MDA-N): 21.6 µM (inactive)
GI50 (MOLT-4): 7.89 µM (inactive)
GI50 (Malme-3M): 11.1 µM (inactive)
GI50 (NCI-H23): 15.8 µM (inactive)
GI50 (NCI-H460): 6.12 µM (inactive)
GI50 (NCI-H522): 12.2 µM (inactive)
GI50 (NCI/ADR-RES): 20.2 µM (inactive)
GI50 (OVCAR-3): 18.1 µM (inactive)
GI50 (OVCAR-4): 15.6 µM (inactive)
GI50 (OVCAR-5): 17.1 µM (inactive)
GI50 (OVCAR-8): 15.7 µM (inactive)
GI50 (PC-3): 11.8 µM (inactive)
GI50 (RPMI-8226): 5.05 µM (inactive)
GI50 (RXF 393): 2.77 µM (inactive)
GI50 (SF-268): 5.42 µM (inactive)
GI50 (SF-295): 15.1 µM (inactive)
GI50 (SK-MEL-28): 18.5 µM (inactive)
GI50 (SK-MEL-2): 14.7 µM (inactive)
GI50 (SK-MEL-5): 15.6 µM (inactive)
GI50 (SK-OV-3): 17.5 µM (inactive)
GI50 (SN12C): 21.3 µM (inactive)
GI50 (SNB-19): 13.6 µM (inactive)
GI50 (SR): 20.7 µM (inactive)
GI50 (SW-620): 31.2 µM (inactive)
GI50 (TK-10): 19.5 µM (inactive)
GI50 (U-251): 12.7 µM (inactive)
GI50 (UACC-257): 17 µM (inactive)
GI50 (UACC-62): 11.6 µM (inactive)
GI50 (UO-31): 12.4 µM (inactive)

CC(=O)Nc1ccc(-c2nc3ccccc3s2)cc1O
GI50 (786-0): 41.1 µM (inactive)
GI50 (A498): 69.7 µM (inactive)
GI50 (A549): 40.1 µM (inactive)
GI50 (ACHN): 27.3 µM (inactive)
GI50 (CAKI-1): 27 µM (inactive)
GI50 (CCRF-CEM): 22.2 µM (inactive)
GI50 (COLO 205): 33.8 µM (inactive)
GI50 (DU-145): 34.8 µM (inactive)
GI50 (HCC 2998): 30.6 µM (inactive)
GI50 (HCT-116): 56.1 µM (inactive)
GI50 (HCT-15): 41.2 µM
GI50 (HOP-62): 32.3 µM (inactive)
GI50 (HOP-92): 65.9 µM (inactive)
GI50 (HT-29): 34.7 µM (inactive)
GI50 (Hs-578T): 50.1 µM (inactive)
GI50 (IGROV-1): 20.9 µM (inactive)
GI50 (K562): 76.2 µM (inactive)
GI50 (KM12): 17.2 µM (inactive)
GI50 (LOX IMVI): 41.3 µM (inactive)
GI50 (M14): 59.2 µM (inactive)
GI50 (MDA-MB-231): 78.2 µM (inactive)
GI50 (MDA-MB-435): 37.8 µM (inactive)
GI50 (MDA-N): 29.6 µM (inactive)
GI50 (MOLT-4): 14.6 µM (inactive)
GI50 (NCI-H226): 16.9 µM (inactive)
GI50 (NCI-H23): 24.5 µM (inactive)
GI50 (NCI-H460): 28.6 µM (inactive)
GI50 (NCI-H522): 2.22 µM (inactive)
GI50 (NCI/ADR-RES): 17.1 µM (inactive)
GI50 (OVCAR-3): 94.8 µM (inactive)
GI50 (OVCAR-4): 92.3 µM (inactive)
GI50 (OVCAR-5): 23 µM (inactive)
GI50 (OVCAR-8): 19.8 µM (inactive)
GI50 (PC-3): 51.2 µM (inactive)
GI50 (RPMI-8226): 21 µM (inactive)
GI50 (RXF 393): > 100 µM (inactive)
GI50 (SF-268): 27.8 µM (inactive)
GI50 (SF-295): 52.6 µM (inactive)
GI50 (SK-MEL-28): 80.5 µM (inactive)
GI50 (SK-MEL-2): 49.1 µM (inactive)
GI50 (SK-MEL-5): 20.4 µM (inactive)
GI50 (SN12C): 30.4 µM (inactive)
GI50 (SNB-19): > 100 µM (inactive)
GI50 (SNB-75): 24.8 µM (inactive)
GI50 (SR): 61.9 µM (inactive)
GI50 (SW-620): 84.5 µM (inactive)
GI50 (T47D): 36.1 µM (inactive)
GI50 (TK-10): 32.4 µM (inactive)
GI50 (U-251): 37.4 µM (inactive)
GI50 (UACC-257): 31.6 µM (inactive)
GI50 (UACC-62): 18.1 µM (inactive)
GI50 (UO-31): 19.6 µM (inactive)
